We go through two compounds from patent publication US6352996B1, “Liposomal prodrugs comprising derivatives of camptothecin and methods of treating cancer using these prodrugs” (priority 1999, dated 2002).

A short description of series [1]: Stability of lactone form in human plasma. Type of series: in vitro ADME. The conditions noted are these: for Percent in plasma (lactone, percent of the initial lactone amount added): 1 μg/ml. As to the method: CPT or SF6A lactone was added to human plasma (1 μg/ml) and an incubation and lactone determination were made as described in Example 15. The lactone amount at each time-point was detected after removing the carboxylate form, and subsequently was calculated as percent of the initial lactone amount added. The results shown in this Table below were derived from one of the three independent experiments performed using different incubation times. The pattern of quantitation of the lactones was similar in all three experiments.

Series [2] is described as follows: Closed lactone form in human plasma after oral administration. Particulars: for % present as closed lactone form in human blood/plasma: after oral administration (FIGS. 2, 4, 5, 7, 8).
For series [3] the following is noted: cited from earlier work.
The test system of a further series is U-937 cells. The series is described as follows: Growth inhibition of U-937 cells treated with CPT esters. Particulars: 0.2 μM, 120 hr, percent of exponential growth of untreated cells (100%), mean of four estimates. Type of series: cell-based. As to the method:
Growth inhibition of U-937 cells treated with various CPT esters.
Each identified compound was added to reach a culture of U-937 cell having a final concentration of 0.2 μM. The treatment time was for 120 hr. Growth inhibition in each of the treated cultures was then estimated as a percent of the exponential growth of the cells that was considered 100%. Each estimate was the mean value of four estimates.

The nature of series [4]: Closed lactone form in plasma of mice after intrastomach administration. Type of series: in vivo. The conditions noted are these: mice, plasma after intrastomach administration (FIG. 1).
The next series relates to BRE stomach carcinoma. Particulars: 10 and 20 mg/kg intrastomach, until day 34 (FIG. 11).
For the next series, the system named is McC colon carcinoma. Particulars: 20 mg/kg intrastomach or intramuscular twice a week, day 11 to day 25 (FIG. 14). As to the method:
(§1) One group of six nude mice where treated interstomach with 10 or 20 mg,/kg body weight Compound IA in cottonseed oil per day for five consecutive days with two day intervals of no treatment (i.e., five days of treatment then two days no treatment, and five day treatment and so on). Another group of six nude mice were treated with 10 or 20 mg/kg body weight Compound IA in the same manner. There were also two control groups of six nude mice each. The designation of “fast” means no food was fed to the mice for at least 12 hours before treatment and the designation of “non-fast” means fed normally. Thus, in this experiment, there were 4 groups of mice with 6 mice in each group.

For a further series, the system named is 2774 ovarian carcinoma. Particulars: for tumor size: day 41 (FIG. 13). Here is the method:
as §1
The route of administration and the dosage regimen were the same as in FIG. 9 except there were only 5 mice in each group and only one control group was used.

A further series concerns SQU colon carcinoma. The conditions noted are these: 10 mg/kg intrastomach or intramuscular, until day 111 (FIG. 15). From the text: (§2) Swiss nude mice of the NIH high fertility strain were bred and maintained pathogen-free in a laboratory. (Giovanella, B. C. and Stehlin, J. S. “Heterotransplantation of human malignant tumors in ‘nude’ thymusless mice. I. Breeding and maintenance of ‘nude’ mice.” J. Natl. Cancer Inst. 51: 615-619; 1973.)
(§3) Human malignant carcinomas of the colon, breast, lung, ovary, stomach, pancreas, bladder, prostate, osteosarcoma and malignant melanomas were heterotransplanted directly from patients into the nude mice and passaged serially. In particular, the tumors CLO, MUR, CAS, SW 48, SQU and BRO as described in Giovanella, B. C., Stehlin, J. S., Shepard, R. C. and Williams, L. J. “Correlation between response to chemotherapy of human tumors in patients and in nude mice.” Cancer 52: 1146-1152; 1983, tumor SCH as described in Heim, S., Mandahl, N., Arheden, K., Giovanella, B. C., Yim, S. O., Stehlin, J. S., Jr. and Mitebman, F. “Multiple karyotypic abnormalities including structural rearrangements of 11P in cell lines from malignant melanomas.” Cancer Genet. Cytogent, 35:5-20; 1988, and Verschraegen, C., Ciovanella, B. C., Mendoza, J. T., Kozielski, A. J. and Stehlin, J. S., Jr. “Specific organ metastases of human melanoma cells injected into the arterial circulation of nude mice.” Anticancer Res., In Press, and tumor PC-3 as described in Invest. Urol. 17, 16-23, 1979, were used. […]

A further series has as its system SW48 colon carcinoma. Particulars: interstomach 10 or 20 mg/kg in cottonseed oil, 5 days on/2 days off, fast and non-fast, day 13-34 (FIG. 9).
From the text: as §2, §3

The next series relates to human tumor xenografts. The conditions noted are these: nude mice.
Another series relates to DOY lung carcinoma. The conditions noted are these: 10 and 20 mg/kg intrastomach, day 34 (FIG. 12).
From the text: as §3

The next series concerns BRO melanoma. Particulars: 20 mg/kg intrastomach, 20 days (FIG. 10).
From the text: as §3

The half-life is the time in which the quantity being followed falls by half.

Like-named read-outs stand apart in the source and are kept apart here.

From the text for BRE stomach carcinoma: Human malignant carcinomas of the colon, breast, lung, ovary, stomach, pancreas, bladder, prostate, osteosarcoma and malignant melanomas were heterotransplanted directly from patients into the nude mice and passaged serially. […] Tumors DOY and HAR (undifferentiated non-oat cell carcinomas of the lung), DIL (a poorly differentiated squamous cell carcinoma of the lung), SPA (a moderately differentiated adenocarcinoma of the lung), LAN (an undifferentiated carcinoma of the ovary), and BRE (a moderately differentiated adenocarcinoma of the stomach) where heterotransplanted. For the experiments, the tumor tissue was finely minced in complete MEM medium and 0.5 ml of a 10% v/v suspension was inoculated subcutaneously on the upper back of groups of 10-30 mice. When the tumors became palpable and measurable in all the animals, they were divided into groups of 4-8 and treated with the desired dose of the drug in experiment or with the vehicle only for the controls,
The dosage regimen and manner of administration are the same as in FIG. 9 except there were 5 mice per group and only one control group.

On to `CC[C@@]1(O)C(=O)OCc2c1cc1n(c2=O)Cc2cc3ccccc3nc2-1` [CPT, 20(S)-camptothecin], for which the “Lactone % in Human Plasma” value in series [1] (Time 0 Hr) worked out at 100%; in [1] (Time 1 Hr), 12%; in series [1] (Time 2 Hr), 0.5%; in series [1] (Time 4 Hr), 0%; in [1] (Time 6 Hr) it was 0%. Besides, the metabolite detected entry in [1] (human plasma) was “the only metabolite detected is the ring-opened sodium carboxylate salt”. In addition, the “Percent in plasma (lactone, percent of the initial lactone amount added)” value in series [1] (human plasma, incubation time 0.0 hr) was 100.0%; in [1] (human plasma, incubation time 0.5 hr), 40.0%; in [1] (human plasma, incubation time 1.0 hr), 12.0%; in series [1] (human plasma, incubation time 2.0 hr) it was 0.5%; in series [1] (human plasma, incubation time 4.0 hr) it was 0.0%; in [1] (human plasma, incubation time 6.0 hr) it was 0.0%. The “Percent in plasma (lactone, percent of the initial lactone amount added)” value in [1] (human plasma, incubation time 27.0 hr) was 0.0%. The half-life in series [1] (human, human plasma, read-out: half-life time of the drug with lactone intact) worked out at 30 min. Besides, in series [2], the “% present as closed lactone form in human blood/plasma” value worked out at 0.4%. In addition, the “closed ring lactone form, share of the area under the curve” value in series [2] (humans, after oral administration (FIG. 2)) was “about 0.4%”. Besides, the solubility in water result in series [3] is given as “insoluble in water”. In the series on U-937 cells, the Growth % is given as 0.0%. Besides, in series [4], the “closed lactone form, share of the area under the curve” value is given as “approximately 54%”.
As to `CCC(=O)O[C@]1(CC)C(=O)OCc2c1cc1n(c2=O)Cc2cc3c([N+](=O)[O-])cccc3nc2-1` [Prodrug 11, 9-Nitrocamptothecin-20-O-propionate], the tumor size entry with BRE stomach carcinoma is on record as “prevention of the growth in the tumor size”; with McC colon carcinoma, “increased slightly but then stabilized”; in the series on 2774 ovarian carcinoma (higher dosage (10 and 20 mg/kg tested) intrastomach), “quite effective in reducing the tumor size”; in the series on 2774 ovarian carcinoma (lesser dosage (10 and 20 mg/kg tested) intrastomach), “steady increase in tumor size”; in the series with SQU colon carcinoma, “essentially stabilized”; in the series on SW48 colon carcinoma, “decline in the tumor size”. Further, the values for the tumor size result with DOY lung carcinoma and in the series with BRO melanoma were “dramatic reduction” and “decreased in size”, respectively. For the same compound, the “% present as closed lactone form in human blood/plasma” value in series [2] is on record as 68.7%. Moreover, the “increase of lactone share over the parent compound” value in [2] (human, oral administration, versus CPT or 9NC) is “more than twentyfold”. Also, the survival entry with 2774 ovarian carcinoma (5 mice per group, day 41) is “all mice survived the experiment in each group”. For the same compound, in the series on human tumor xenografts, the “antitumor activity against xenografts of human tumors” value is reported as “even higher than the camptothecin analogue, Prodrug 2”.
